Measurements: ChEMBL document CHEMBL3861969, “Acredinone C and the Effect of Acredinones on Osteoclastogenic and Osteoblastogenic Activity” (J Nat Prod, 2016)
Active and inactive are the calls of the source. No cut-off for these calls is given here.

Assays:
BMDM [1] = assay: Inhibition of RANKL-induced OSCAR mRNA expression in mouse BMDM cells at 10 uM preincubated with cells followed by RANKL addition measured after 2 days by real-time PCR analysis; assay type: functional, cell-based
[2] = molecular target: Mitogen-activated protein kinase 1 (Mus musculus) (UniProt P63085); assay: Inhibition of RANKL-induced ERK2 phosphorylation in mouse BMDM cells assessed as ratio of phosphorylated ERK2 to ERK2 at 10 uM preincubated for 5 mins followed RANKL/M-CSF addition for 5 mins by Western blot analysis (reference value: 2.6); assay type: cell-based
BMDM [3] = assay: Inhibition of RANKL-induced cathespin K mRNA expression in mouse BMDM cells at 10 uM preincubated with cells followed by RANKL addition measured after 2 days by real-time PCR analysis; assay type: functional, cell-based
[4] = molecular target: Mitogen-activated protein kinase 9 (Mus musculus) (UniProt Q9WTU6); assay: Inhibition of RANKL-induced JNK2 phosphorylation in mouse BMDM cells assessed as ratio of phosphorylated JNK2 to JNK2 at 10 uM preincubated for 5 mins followed RANKL/M-CSF addition for 5 mins by Western blot analysis (reference value: 5.2); assay type: cell-based
C2C12 [5] = assay: Increase in BMP2-induced BMP2 mRNA expression in mouse C2C12 cells at 10 uM measured on day 3 by real-time PCR analysis; assay type: functional, cell-based
[6] = molecular target: RAC-alpha serine/threonine-protein kinase (Mus musculus) (UniProt P31750); assay: Inhibition of RANKL-induced AKT phosphorylation in mouse BMDM cells assessed as ratio of phosphorylated AKT to AKT at 10 uM preincubated for 5 mins followed RANKL/M-CSF addition for 5 mins by Western blot analysis (reference value: 2.1); assay type: cell-based
BMDM [7] = assay: Inhibition of RANKL-induced mouse BMDM cell differentiation assessed as reduction in TRAP activity at 0.1 to 30 uM using p-nitrophenyl phosphate as substrate preincubated for 5 mins followed by RANKL/M-CSF addition measured after 4 days; assay type: functional, cell-based
SMAD1/5/9 (Mus musculus) [8] = molecular target: T1, SMAD1/5/9 (Mus musculus) (UniProt P70340+P97454+Q9JIW5); assay: Activation of Smad1/5/8 in mouse C2C12 cells assessed as increase in BMP2-stimulated […] mRNA expression at 10 uM preincubated with cells followed by BMP2 addition after 3 days by real-time PCR analysis; assay type: cell-based
BMDM [9] = assay: Inhibition of RANKL-induced c-Src mRNA expression in mouse BMDM cells at 10 uM preincubated with cells followed by RANKL addition measured after 2 days by real-time PCR analysis; assay type: functional, cell-based
C2C12 [10] = assay: Increase in BMP2-induced BMP4 mRNA expression in mouse C2C12 cells at 10 uM measured on day 3 by real-time PCR analysis; assay type: functional, cell-based
C2C12 [11] = assay: Increase in BMP2-induced BMP7 protein expression in mouse C2C12 cells assessed as ratio of BMP7 to actin at 10 uM measured on day 6 by Western blot analysis (reference value: 2.4); assay type: functional
[12] = molecular target: MAP kinase p38 (Mus musculus) (UniProt P47811+O08911+Q9WUI1+Q9Z1B7); assay: Inhibition of RANKL-induced p38 phosphorylation in mouse BMDM cells assessed as ratio of phosphorylated p38 to p38 at 10 uM preincubated for 5 mins followed RANKL/M-CSF addition for 5 mins by Western blot analysis (reference value: 24.7); assay type: cell-based
Mus musculus [13] = organism: Mus musculus; assay: Cytotoxicity against mouse C2C12 cells assessed as reduction cell viability after 3 days in presence of BMP2 by CCK-8 assay; assay type: toxicity, cell-based; settings: c2c12, 72 h
SMAD1/5/9 (Mus musculus) [14] = molecular target: T1, SMAD1/5/9 (Mus musculus); assay: Increase in BMP2-induced Smad1/5/8 nuclear translocation in mouse C2C12 cells assessed as ratio of Smad1/5/8 to lamin B1 in nuclear fraction at 10 uM preincubated with cells followed by BMP2 addition for 4 hrs by Western blot analysis (reference value: 1.5); assay type: cell-based
BMDM [15] = assay: Inhibition of RANKL-induced mouse BMDM cell differentiation assessed as TRAP-positive MNCs at 0.1 to 30 uM preincubated for 5 mins followed by RANKL/M-CSF addition measured after 4 days by TRAP-staining based assay; assay type: functional
Mus musculus [16] = assay: Osteogenic activity in ICR mouse calvarial bone implanted with collagen sponges containing 10 mM compound incubated for 2 weeks assessed as increase in bone volume relative to control; assay type: functional
[17] = molecular target: T2, NF-kappa-B inhibitor alpha (Mus musculus) (UniProt Q9Z1E3); assay: Inhibition of RANKL-induced IkBalpha phosphorylation in mouse BMDM cells at 10 uM preincubated for 5 mins followed RANKL/M-CSF addition for 5 mins by Western blot analysis; assay type: cell-based
T2 sequence (whole entry): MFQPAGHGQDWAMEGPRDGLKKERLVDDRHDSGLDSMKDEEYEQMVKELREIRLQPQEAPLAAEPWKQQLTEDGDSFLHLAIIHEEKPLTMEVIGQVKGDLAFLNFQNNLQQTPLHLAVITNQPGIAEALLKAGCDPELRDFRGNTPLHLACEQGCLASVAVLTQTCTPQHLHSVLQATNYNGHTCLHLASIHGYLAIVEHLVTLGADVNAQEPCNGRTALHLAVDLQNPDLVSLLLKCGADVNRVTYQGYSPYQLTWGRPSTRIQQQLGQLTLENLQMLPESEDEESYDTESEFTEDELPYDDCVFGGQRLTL

C2C12 [18] = assay: Increase in BMP2-induced BMP2 protein expression in mouse C2C12 cells assessed as ration of BMP2 to actin at 10 uM measured on day 3 by Western blot analysis (reference value: 1.4); assay type: functional
C2C12 [19] = assay: Induction of BMP2-induced osteoblast differentiation in mouse C2C12 cells assessed as increase in ALP mRNA expression at 10 uM preincubated with cells followed by BMP2 addition measured after 3 days by real-time PCR analysis; assay type: functional, cell-based
BMDM [20] = assay: Inhibition of RANKL-induced DC-STAMP mRNA expression in mouse BMDM cells at 10 uM preincubated with cells followed by RANKL addition measured after 2 days by real-time PCR analysis; assay type: functional, cell-based
SMAD1/5/9 (Mus musculus) [21] = molecular target: T1, SMAD1/5/9 (Mus musculus); assay: Increase in BMP2-induced Smad1/5/8 nuclear translocation in mouse C2C12 cells assessed as ratio of Smad1/5/8 to actin in cytosol fraction at 10 uM preincubated with cells followed by BMP2 addition for 4 hrs by Western blot analysis (reference value: 0.4); assay type: cell-based
[22] = molecular target: Mitogen-activated protein kinase 8 (Mus musculus) (UniProt Q91Y86); assay: Inhibition of RANKL-induced JNK1 phosphorylation in mouse BMDM cells assessed as ratio of phosphorylated JNK1 to JNK1 at 10 uM preincubated for 5 mins followed RANKL/M-CSF addition for 5 mins by Western blot analysis (reference value: 3.7); assay type: cell-based
BMDM [23] = assay: Inhibition of RANKL-induced mouse BMDM cell differentiation assessed as TRAP-positive MNCs at 0.1 to 10 uM preincubated for 5 mins followed by RANKL/M-CSF addition measured after 4 days by TRAP-staining based assay; assay type: functional
SMAD1/5/9 (Mus musculus) [24] = molecular target: T1, SMAD1/5/9 (Mus musculus); assay: Activation of Smad1/5/8 in mouse C2C12 cells assessed as increase in BMP2-stimulated Runx2 mRNA expression at 10 uM preincubated with cells followed by BMP2 addition after 3 days by real-time PCR analysis; assay type: cell-based
SMAD1/5/9 (Mus musculus) [25] = molecular target: T1, SMAD1/5/9 (Mus musculus); assay: Increase in BMP2-induced Smad1/5/8 phosphorylation in mouse C2C12 cells assessed as ratio of phosphorylated Smad1/5/8 to Smad1/5/8 in nuclear fraction at 10 uM preincubated with cells followed by BMP2 addition for 4 hrs by Western blot analysis (reference value: 1.2); assay type: cell-based
BMDM [26] = assay: Inhibition of RANKL-induced NFATc1 mRNA expression in mouse BMDM cells at 10 uM preincubated with cells followed by RANKL addition measured after 2 days by real-time PCR analysis; assay type: functional, cell-based
C2C12 [27] = assay: Induction of osteoblast differentiation in mouse C2C12 cells assessed as increase in BMP2-induced ALP activity preincubated with cells after 3 days using p-nitrophenyl phosphate as substrate; assay type: functional, cell-based
[28] = Inhibition of RANKL-induced c-Fos expression in mouse BMDM cells assessed as ratio of c-Fos to actin at 10 uM preincubated with cells followed RANKL/M-CSF addition measured after 1 day by Western blot analysis (reference value: 6.4); assay type: functional
SMAD1/5/9 (Mus musculus) [29] = molecular target: T1, SMAD1/5/9 (Mus musculus); assay: Activation of Smad1/5/8 in mouse C2C12 cells assessed as increase in BMP2-stimulated OPN mRNA expression at 10 uM preincubated with cells followed by BMP2 addition after 3 days by real-time PCR analysis; assay type: cell-based
C2C12 [30] = assay: Induction of BMP2-induced osteoblast differentiation in mouse C2C12 cells preincubated with cells after 3 days by […] assay; assay type: functional, cell-based
[31] = Inhibition of RANKL-induced NFATc1 expression in mouse BMDM cells assessed as ratio of NFATc1 to actin at 10 uM preincubated with cells followed RANKL/M-CSF addition measured after 1day by Western blot analysis (reference value: 281); assay type: functional
C2C12 [32] = assay: Increase in BMP2-induced BMP6 mRNA expression in mouse C2C12 cells at 10 uM measured on day 3 by real-time PCR analysis; assay type: functional, cell-based
BMDM [33] = assay: Inhibition of RANKL-induced TRAP mRNA expression in mouse BMDM cells at 10 uM preincubated with cells followed by RANKL addition measured after 2 days by real-time PCR analysis; assay type: functional, cell-based
Mus musculus [34] = assay: Osteogenic activity in ICR mouse calvarial bone implanted with collagen sponges containing 10 mM compound incubated for 2 weeks assessed as increase in woven bone formation near periosteum of the calvarial bone by hematoxylin and eosin staining based assay relative to control; assay type: functional
[35] = molecular target: Mitogen-activated protein kinase 3 (Mus musculus) (UniProt Q63844); assay: Inhibition of RANKL-induced ERK1 phosphorylation in mouse BMDM cells assessed as ratio of phosphorylated ERK1 to ERK1 at 10 uM preincubated for 5 mins followed RANKL/M-CSF addition for 5 mins by Western blot analysis (reference value: 2.9); assay type: cell-based
Osteoclast = assay: Inhibition of RANKL-induced mouse BMDM cell differentiation assessed as reduction in TRAP-positive multi-nucleated osteoclast cells preincubated for 5 mins followed by RANKL/M-CSF addition measured after 4 days by light microscopic analysis; assay type: functional, cell-based
C2C12 [36] = assay: Increase in BMP2-induced BMP9 mRNA expression in mouse C2C12 cells at 10 uM measured on day 3 by real-time PCR analysis; assay type: functional, cell-based
Mus musculus [37] = organism: Mus musculus; assay: Cytotoxicity against mouse BMDM cells assessed as reduction in cell viability up to 10 uM after 3 days in presence of M-CSF by CCK-8 assay; assay type: toxicity, cell-based; settings: 72 h
C2C12 [38] = assay: Increase in BMP2-induced BMP7 mRNA expression in mouse C2C12 cells at 10 uM measured on day 3 by real-time PCR analysis; assay type: functional, cell-based
Mus musculus [39] = organism: Mus musculus; assay: Cytotoxicity against mouse BMDM cells assessed as reduction in cell viability at 30 uM after 3 days in presence of M-CSF by CCK-8 assay; assay type: toxicity, cell-based; settings: 72 h

Chain of Mitogen-activated protein kinase 8 (Mus musculus) (Q91Y86 whole entry): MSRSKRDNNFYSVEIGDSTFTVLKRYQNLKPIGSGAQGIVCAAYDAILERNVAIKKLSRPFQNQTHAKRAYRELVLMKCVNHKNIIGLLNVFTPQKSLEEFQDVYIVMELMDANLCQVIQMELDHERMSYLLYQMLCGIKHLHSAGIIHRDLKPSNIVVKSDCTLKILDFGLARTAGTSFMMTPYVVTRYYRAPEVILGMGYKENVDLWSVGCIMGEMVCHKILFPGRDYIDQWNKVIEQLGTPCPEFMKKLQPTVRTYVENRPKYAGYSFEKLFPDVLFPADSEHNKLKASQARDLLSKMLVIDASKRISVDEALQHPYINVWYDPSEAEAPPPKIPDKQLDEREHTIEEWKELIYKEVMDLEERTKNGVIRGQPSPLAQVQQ
Chain of Mitogen-activated protein kinase 1 (Mus musculus) (P63085 whole entry): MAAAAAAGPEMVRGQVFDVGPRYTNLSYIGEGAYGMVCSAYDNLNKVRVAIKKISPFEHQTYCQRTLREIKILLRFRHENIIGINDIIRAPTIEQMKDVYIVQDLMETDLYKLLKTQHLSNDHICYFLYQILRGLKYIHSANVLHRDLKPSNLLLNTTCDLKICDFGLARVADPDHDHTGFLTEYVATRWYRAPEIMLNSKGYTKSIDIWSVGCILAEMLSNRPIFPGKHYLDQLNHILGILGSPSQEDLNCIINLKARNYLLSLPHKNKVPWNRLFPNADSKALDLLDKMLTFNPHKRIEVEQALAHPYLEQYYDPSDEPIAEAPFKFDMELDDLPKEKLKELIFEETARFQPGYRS
Chain of Mitogen-activated protein kinase 9 (Mus musculus) (Q9WTU6 whole entry): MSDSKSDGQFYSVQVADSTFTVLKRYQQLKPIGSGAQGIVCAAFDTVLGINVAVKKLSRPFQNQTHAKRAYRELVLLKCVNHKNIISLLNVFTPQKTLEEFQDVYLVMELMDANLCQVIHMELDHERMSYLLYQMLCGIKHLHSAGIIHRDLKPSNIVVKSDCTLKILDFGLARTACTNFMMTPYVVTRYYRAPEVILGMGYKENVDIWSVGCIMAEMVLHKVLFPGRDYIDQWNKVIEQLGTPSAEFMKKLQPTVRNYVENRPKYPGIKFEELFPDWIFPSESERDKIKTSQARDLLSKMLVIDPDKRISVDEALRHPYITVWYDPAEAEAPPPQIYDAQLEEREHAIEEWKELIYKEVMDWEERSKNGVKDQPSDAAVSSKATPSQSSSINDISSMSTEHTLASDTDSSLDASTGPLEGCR
Chain of Mitogen-activated protein kinase 3 (Mus musculus) (Q63844 whole entry): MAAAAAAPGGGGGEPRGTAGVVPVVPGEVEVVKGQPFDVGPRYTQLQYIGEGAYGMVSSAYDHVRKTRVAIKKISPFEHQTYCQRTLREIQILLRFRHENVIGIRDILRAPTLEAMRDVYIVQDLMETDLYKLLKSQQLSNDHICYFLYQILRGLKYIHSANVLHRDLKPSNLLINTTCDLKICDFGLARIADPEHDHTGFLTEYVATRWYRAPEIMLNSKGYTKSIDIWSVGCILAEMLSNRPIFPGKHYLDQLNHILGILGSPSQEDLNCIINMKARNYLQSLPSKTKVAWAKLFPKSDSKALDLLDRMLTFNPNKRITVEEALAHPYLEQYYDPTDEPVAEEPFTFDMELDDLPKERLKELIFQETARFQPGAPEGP
Chain of RAC-alpha serine/threonine-protein kinase (Mus musculus) (P31750 whole entry): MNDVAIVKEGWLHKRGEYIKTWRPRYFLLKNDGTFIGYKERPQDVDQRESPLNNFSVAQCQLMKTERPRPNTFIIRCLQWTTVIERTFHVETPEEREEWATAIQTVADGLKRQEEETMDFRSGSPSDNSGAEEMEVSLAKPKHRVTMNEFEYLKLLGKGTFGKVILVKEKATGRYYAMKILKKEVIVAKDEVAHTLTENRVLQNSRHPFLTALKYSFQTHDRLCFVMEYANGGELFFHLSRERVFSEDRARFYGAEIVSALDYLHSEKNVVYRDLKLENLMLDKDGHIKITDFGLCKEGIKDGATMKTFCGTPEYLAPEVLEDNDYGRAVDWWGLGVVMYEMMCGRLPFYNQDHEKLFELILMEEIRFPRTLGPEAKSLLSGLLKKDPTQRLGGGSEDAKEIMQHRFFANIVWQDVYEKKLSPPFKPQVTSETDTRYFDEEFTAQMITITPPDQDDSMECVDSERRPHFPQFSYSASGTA

COc1cccc(OC)c1C(=O)c1c(O)cc(C)c(OC)c1C1=C(c2c(OC)cccc2OC)c2c(O)cc(C)c(OC)c2C1=O
inhibition (BMDM [1]): Active
fold change (FC) [2]: 2.8
inhibition (BMDM [3]): Active
fold change (FC) [4]: 4.3
Activity (C2C12 [5]): Active
fold change (FC) [6]: 2
inhibition (BMDM [7]): Active
Activity (SMAD1/5/9 (Mus musculus) [8]): Active
inhibition (BMDM [9]): Active
Activity (C2C12 [10]): Active
fold change (FC) (C2C12 [11]): 3.1
fold change (FC) [12]: 13.2
Activity (Mus musculus [13]): Non-Toxic
fold change (FC) (SMAD1/5/9 (Mus musculus) [14]): 2.4
inhibition (BMDM [15]): Active
fold change (FC) (Mus musculus [16]): 2.7
inhibition [17]: Active
fold change (FC) (C2C12 [18]): 3.8
Activity (C2C12 [19]): Active
inhibition (BMDM [20]): Active
fold change (FC) (SMAD1/5/9 (Mus musculus) [21]): 0.1
fold change (FC) [22]: 2.9
inhibition (BMDM [23]): Active
Activity (SMAD1/5/9 (Mus musculus) [24]): Active
fold change (FC) (SMAD1/5/9 (Mus musculus) [25]): 1.7
inhibition (BMDM [26]): Active
Activity (C2C12 [27]): Dose-dependent effect
fold change (FC) [28]: 5.5
Activity (SMAD1/5/9 (Mus musculus) [29]): Active
Activity (C2C12 [30]): Dose-dependent effect
fold change (FC) [31]: 175
Activity (C2C12 [32]): Active
inhibition (BMDM [33]): Active
Activity (Mus musculus [34]): Active
fold change (FC) [35]: 3.2
inhibition (Osteoclast): Dose-dependent effect
Activity (C2C12 [36]): Active
Activity (Mus musculus [37]): Non-Toxic
Activity (C2C12 [38]): Active

COc1cccc(OC)c1C(=O)c1c(O)cc(C)c(OC)c1CC(=O)c1c(OC)c(C)cc(O)c1C(=O)c1c(OC)cccc1OC
inhibition (BMDM [1]): Active
fold change (FC) [2]: 1.7
inhibition (BMDM [3]): Active
fold change (FC) [4]: 4.2
fold change (FC) [6]: 1.1
inhibition (BMDM [7]): Active
inhibition (BMDM [9]): Active
fold change (FC) [12]: 20.2
Activity (Mus musculus [13]): Non-Toxic
inhibition (BMDM [15]): Active
inhibition [17]: Active
Activity (C2C12 [19]): Active
inhibition (BMDM [20]): Active
fold change (FC) [22]: 2.7
inhibition (BMDM [23]): Active
inhibition (BMDM [26]): Active
fold change (FC) [28]: 3.5
fold change (FC) [31]: 124
inhibition (BMDM [33]): Active
Activity (Mus musculus [39]): Toxic
fold change (FC) [35]: 2.1
inhibition (Osteoclast): Dose-dependent effect
Activity (Mus musculus [37]): Non-Toxic
